Structures can show the parent of a compound that is named as a salt.

In this experiment the target is chymotrypsin (Bos taurus, UniProt P00766). In words: Chymotrypsin inhibitive activity (method of Muramatsu et al., acetyl-L-tyrosine ethyl ester substrate, Hestrin Method). The class given is biochemical. Particulars: pH 8.0 tris-hydrochloric acid buffer, 10 minutes preincubation, 30° C., 30 minutes, absorbance at 530 nm, read-out: Chymotrypsin inhibitive activity [50% inhibition concentration (M)]. The protocol:
A solution prepared by mixing 0.1 ml of a dimethylsulfoxide solution containing a compound to be tested, 0.1 ml of water and 0.1 ml of a buffer solution containing 10 ug/ml of chymotrypsin (0.1M tris-hydrochloric acid buffer solution, pH 8.0) was incubated for 10 minutes by the method of Muramatsu et al. [see The Journal of Biochemistry, 62, 408 (1967)]. 0.2 ml of a buffer solution containing 25 mM of an acetyl-L-tyrosine ethyl ester was mixed with the above-prepared solution and reacted at 30° C. for 30 minutes. The amount of the remaining substrate was determined by causing the same to develop color by the Hestrin Method and measuring the absorbance at 530 nm. For comparative purposes, use was made of tosylphenylalanine chloromethyl ketone which was known as a chymotrypsin inhibitor (Comparative Compound I).

On to `CC(C)N1CCN(C(=O)c2ccc(OC(=O)Cc3cc4ccccc4s3)cc2)CC1` [Example 3], for which the IC50 turned out to be 9e-07 M. The value for `CC(C)N1CCN(C(=O)c2ccc(OC(=O)C3C=CCc4cc(Cl)ccc43)cc2)CC1` (stereo not shown) [Example 21] was 9e-06 M.

For `COc1ccc2c(c1)C(CC(=O)Oc1ccc(C(=O)N3CCN(C(C)C)CC3)cc1)=CC2` [Example 9], the IC50 came out at 1e-06 M. The value for `CCN1CCN(C(=O)c2ccc(OC(=O)C3CCCc4ccccc43)cc2)CC1` (stereo not shown) [Example 68] was 9e-07 M; that for `CC(C)N1CCN(C(=O)c2ccc(OC(=O)Cc3cccc4c3CCCC4)cc2)CC1` [Example 1, 1-Isopropyl-4-[4-(5,6,7,8-tetraphydronaphthalene-1-acetyloxy)benzoyl]piperazine.hydrochloride] was 3e-06 M.

In the case of `CC1CCC(C(=O)Oc2ccc(C(=O)N3CCN(C(C)C)CC3)cc2)c2ccccc21` (stereo not shown) [Example 15], the IC50 worked out at 8e-07 M. In the case of `CC(C)N1CCN(C(=O)c2ccc(OC(=O)C3CCc4ccccc43)cc2)CC1` (stereo not shown) [Example 4], the IC50 is 5e-06 M. With `CC(C)N1CCN(C(=O)c2ccc(OC(=O)CC3=CCCc4ccccc43)cc2)CC1` [Example 22], the IC50 came to 3e-06 M. Turning to `CC(C)N1CCN(C(=O)c2ccc(OC(=O)C3CCCc4ccccc43)cc2)CC1` (stereo not shown) [Example 67], the IC50 was determined as 8e-07 M. In the case of `CC(C)N1CCN(C(=O)c2ccc(OC(=O)C=C3c4ccccc4-c4ccccc43)cc2)CC1` [Example 2, 1-Isopropyl-4-[4-(9-fluorenylideneacetyloxy)benzoyl]piperazine], the IC50 is 1e-07 M. With `CC(C)N1CCN(C(=O)c2ccc(OC(=O)Cc3cccc4ccccc34)cc2)CC1` [Example 24], the IC50 was determined as 5e-07 M. `CC(C)N1CCN(C(=O)c2ccc(OC(=O)COc3ccc4ccccc4c3)cc2)CC1` [Example 30]: the IC50 amounted to 9e-06 M. Regarding `Cc1ccc2c(c1)CCCC2C(=O)Oc1ccc(C(=O)N2CCN(C(C)C)CC2)cc1` (stereo not shown) [Example 18], the IC50 was found to be 6e-07 M. As for `COc1ccc2c(c1)C(C(=O)Oc1ccc(C(=O)N3CCN(C)CC3)cc1)CCC2` (stereo not shown) [Example 65, 1-Methyl-4-[4-(7-methoxyl-1,2,3,4-tetrahydro-1-naphtoyloxy)benzoyl]piperazine.methanesulfonate], the IC50 was determined as 8e-07 M. Consider `O=C(Oc1ccc(C(=O)N2CCN(C3CCCCC3)CC2)cc1)C1CCCc2ccccc21` (stereo not shown) [Example 66], for which the IC50 is 9e-07 M.

In the case of `CC(C)N1CCN(C(=O)c2ccc(OC(=O)CCc3ccc4ccccc4c3)cc2)CC1` [Example 32], the IC50 stood at 7e-06 M.

Consider `CC(C)N1CCN(C(=O)c2ccc(OC(=O)C3CCCc4cc(Cl)ccc43)cc2)CC1` (stereo not shown) [Example 17], for which the IC50 was found to be 8e-07 M. Turning to `CC(C)N1CCN(C(=O)c2ccc(OC(=O)C3=Cc4ccccc4CC3)cc2)CC1` [Example 20], the IC50 worked out at 5e-06 M. On to `CC(C)N1CCN(C(=O)c2ccc(OC(=O)CC3c4ccccc4-c4ccccc43)cc2)CC1` [Example 40], for which the IC50 is 1e-06 M.

These data come from patent publication US4898876A, “Benzoylpiperazine esters and a process for their production” (Kowa Co., Ltd., priority 1982, dated 1990).
